The results in this text go back to patent US4145419A, “Novel imidazobenzoxazines” (Roussel Uclaf, priority 1976, dated 1979).

The assay concerns passive cutaneous anaphylaxis. In words: Passive Cutaneous Anaphylaxis (PCA) in Rats. The format is in vivo. Particulars: Rattus norvegicus, dosed immediately prior to intravenous antigen challenge, read-out: ED50 (dose of drug giving 50% inhibition). The text has this: Passive Cutaneous Anaphylaxis (PCA) in Rats
Cutaneous anaphylaxis can be induced in rats by intradermal (ID) sensitization with antiserum followed three days later by systemic challenge with antigen. Evans blue dye injected with the antigen is used as a marker to assess the severity of the local response. Anti-allergic drugs inhibit this reaction. This method has been described by OVARY (1962) "Passive Cutaneous Anaphylaxis in Allergology" Page 358-367 Ed. Brown: Pergamon Press:-male rats weighing 180-220 grams are used in groups of seven.
Preparation of Antigen for Sensitization (Alum precipitated ovalbumen)
1. Wash 120 grams of Al(OH)3 gel in 140 ml of saline (use of a macerater facilitates mixing).
2. Centrifuge at 3,000 r.p.m. for about 10 minutes.
3. Resuspend the precipitate with 300 ml of albumen egg powder (1.3 mg/ml) in saline and allow to stand for 30 minutes.
4. Centrifuge at 3,000 r.p.m. for 10 minutes.
5. Weigh the wet precipitate and to each gram weight add 1 ml of saline. Store in refrigerator (Quantity sufficient for 60 rats for a 3 day sensitization program).
Preparation of Antiserum (anti-ovalbumen)
1 ml of the alum precipitated ovalbumen was injected subcutaneously into rats weighing 180-200 grams on days 0,2,4. The rats were bled on day 14 either by cardiac puncture or via the dorsal abdominal aorta. Equal quantities of serum from each animal were pooled and thoroughly mixed and 2 ml aliquots were stored at -20° C. in plastic tubes.
The antiserum for sensitization was diluted so that an ID injection of 0.1 ml into control animals would give an average score of a single spot of between 2.0-3.5 using a 4 point scoring system.
(A) SENSITIZATION: The rats were anaesthetized with Nembutal (40-60 mg/kg i.p.) and were then sensitized by four ID injections (0.1 ml each) on their shaved backs. The animals were then left for a period of three days to develop sensitization.
(B) CHALLENGE: The sensitized rats were dosed orally or intraveneously with the drug immediately prior to intraveneous challage via the superficial penile vein with 1 ml of an antigen/Evans blue mixture (1 mg albumen egg powder in 0.5 ml saline plus 0.5 ml of 1% Evans blue). The injection were speeded up by using an automatic 1 ml self-filling glass syringe. The "challenged" rats were killed after 30 minutes, (usually pithed) and their skin on the dorsal surface was removed. The degree and area of blueing, proportional to the anaphylactic reaction was assessed on a four point scoring system.
1. Total scores for sites 1,2,3 and 4 = X
2. mean value of X for each group = X
3. x t = X for test group X c = X for control group
4. % inhibition = X c - X t/X c X 100/1
5. ed50 = dose of drug giving 50% inhibition.
ED50 values for the compounds tested in the passive cutaneous anaphylaxis screen (in rats) are as follows: […]

Read-outs that look alike come from different tables or passages of the source.

Take `COC(=O)c1cn2c(n1)COc1ccccc1-2` [Example 1, methyl 4H-imidazo-[2,1-c][1,4]-benzoxazine-2-carboxylate]: for the setting “po, P.O.”, the ED50 came out at 10.8 mg/kg.

As for `O=C(O)c1cn2c(n1)COc1ccccc1-2` [Example 2, 4H-imidazo-[2,1-c][1,4]-benzoxazine-2-carboxylic acid], the ED50 came to 1.95 mg/kg (I.V.) and 2.88 mg/kg (po, P.O.).

For `O=C(OCCN1CCOCC1)c1cn2c(n1)COc1ccccc1-2` [Example 5, 2-morpholinoethyl 4H-imidazo-[2,1-c][1,4]-benzoxazine-2-carboxylate], the ED50 (I.V.) was 1.75 mg/kg and the ED50 (po, P.O.) worked out at 10.7 mg/kg.

On to `O=C(O)c1cn2c(n1)COc1ccc([N+](=O)[O-])cc1-2` [Example 10, 8-nitro-4H-imidazo-[2,1-c][1,4]-benzoxazine-2-carboxylic acid], for which the ED50 (I.V.) stood at 2.2 mg/kg.

`CC(=O)Nc1ccc2c(c1)-n1cc(C(=O)O)nc1CO2` [Example 11, 8-acetamido-4H-imidazo-[2,1-c][1,4]-benzoxazine-2-carboxylic acid]: the median effective dose (ED50) reads like this: (I.V.) 0.073 mg/kg; (po, P.O.) over 10 mg/kg.

For `O=C(O)C(=O)Nc1ccc2c(c1)-n1cc(C(=O)O)nc1CO2` [Example 12, 8-oxalamino-4H-imidazo-[2,1-c][1,4]-benzoxazine-2-carboxylic acid], where the note is “po, P.O.”, the ED50 is 3.85 mg/kg.

What is called ED50 is the midpoint of the dose-response relation.
